Assay results taken from the supplement of paper PMC10307832.

Each cell line was assayed with CC(C)CCN1c2nc(Nc3cc(F)c(O)c(F)c3)ncc2N(C)C(=O)C1C [BI-D1870] + CC(=O)Nc1cccc(-n2c(=O)n(C3CC3)c(=O)c3c(Nc4ccc(I)cc4F)n(C)c(=O)c(C)c32)c1 [Trametinib] (partner 0.02 µM) (assay: relative viability (nuclei count vs DMSO), 5 days (fraction); higher = more cells survive). Settings: first compound 0.04 µM.
How it was run: (§1)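 For relative viability, nuclei counts in treated wells were divided by those in vehicle wells. Lung cancer cell lines had been pin-tool dosed in 1536-well plates the day after seeding and cultured for 5 days, then fixed and stained in one step (final 0.05% Triton X-100, 1% formaldehyde, 1 ug/ml Hoechst) and imaged at 4×. Doses were one drug alone or a fixed anchor-drug dose plus five library-drug doses (not always all listed) in √10 steps, and values are duplicate-plate medians.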

Cell Line | relative viability
NCI-H2405 | 0.683
HOP-62 | 0.429
HCC-44 | 1.04
LU99A | 0.513
BEN | 1.01
HARA | 0.613
HCC-78 | 0.526
NCI-H322M | 0.437
LCLC-97TM1 | 0.214
NCI-H2009 | 0.299
A-427 | 0.763
NCI-H441 | 0.524
NCI-H661 | 0.607
NCI-H1734 | 0.752
NCI-H460 | 0.133
NCI-H2347 | 0.302

Cell Line | relative viability
SK-LU-1 | 0.553
201T | 0.694
NCI-H1915 | 0.332
HCC-827 | 0.551
LXF-289 | 0.755
NCI-H23 | 0.39
NCI-H647 | 0.575
NCI-H1651 | 0.874
EPLC-272H | 0.292
NCI-H1792 | 0.489
NCI-H1355 | 0.455
NCI-H3122 | 0.234
NCI-H1437 | 0.556
NCI-H1755 | 0.758
NCI-H2023 | 0.537
HCC-15 | 0.376

Same assay, conditions: first compound 0.1265 µM

Cell Line | relative viability
NCI-H2405 | 0.595
HOP-62 | 0.332
HCC-44 | 1.06
LU99A | 0.436
BEN | 0.896
HARA | 0.548
HCC-78 | 0.655
NCI-H322M | 0.537
LCLC-97TM1 | 0.181
NCI-H2009 | 0.221
A-427 | 0.678
NCI-H441 | 0.417
NCI-H661 | 0.499
NCI-H1734 | 0.549
NCI-H460 | 0.117
NCI-H2347 | 0.26

Cell Line | relative viability
SK-LU-1 | 0.403
201T | 0.683
NCI-H1915 | 0.27
HCC-827 | 0.495
LXF-289 | 0.608
NCI-H23 | 0.342
NCI-H647 | 0.45
NCI-H1651 | 0.881
EPLC-272H | 0.258
NCI-H1792 | 0.349
NCI-H1355 | 0.361
NCI-H3122 | 0.202
NCI-H1437 | 0.475
NCI-H1755 | 0.774
NCI-H2023 | 0.389
HCC-15 | 0.35

Same assay, conditions: first compound 0.4 µM

Cell Line | relative viability
NCI-H2405 | 0.586
HOP-62 | 0.331
HCC-44 | 1.07
LU99A | 0.519
BEN | 1.05
HARA | 0.702
HCC-78 | 0.675
NCI-H322M | 0.524
LCLC-97TM1 | 0.174
NCI-H2009 | 0.248
A-427 | 0.755
NCI-H441 | 0.463
NCI-H661 | 0.598
NCI-H1734 | 0.658
NCI-H460 | 0.126
NCI-H2347 | 0.273

Cell Line | relative viability
SK-LU-1 | 0.372
201T | 0.703
NCI-H1915 | 0.27
HCC-827 | 0.463
LXF-289 | 0.71
NCI-H23 | 0.385
NCI-H647 | 0.533
NCI-H1651 | 0.81
EPLC-272H | 0.302
NCI-H1792 | 0.437
NCI-H1355 | 0.448
NCI-H3122 | 0.234
NCI-H1437 | 0.494
NCI-H1755 | 0.74
NCI-H2023 | 0.578
HCC-15 | 0.371

Same assay, conditions: first compound 1.265 µM

Cell Line | relative viability
NCI-H2405 | 0.67
HOP-62 | 0.367
HCC-44 | 1.04
LU99A | 0.511
BEN | 1.04
HARA | 0.876
HCC-78 | 1.03
NCI-H322M | 0.508
LCLC-97TM1 | 0.221
NCI-H2009 | 0.289
A-427 | 0.833
NCI-H441 | 0.578
NCI-H661 | 0.589
NCI-H1734 | 0.706
NCI-H460 | 0.105
NCI-H2347 | 0.296

Cell Line | relative viability
SK-LU-1 | 0.515
201T | 0.705
NCI-H1915 | 0.254
HCC-827 | 0.456
LXF-289 | 0.738
NCI-H23 | 0.329
NCI-H647 | 0.462
NCI-H1651 | 0.936
EPLC-272H | 0.298
NCI-H1792 | 0.567
NCI-H1355 | 0.418
NCI-H3122 | 0.25
NCI-H1437 | 0.568
NCI-H1755 | 0.831
NCI-H2023 | 0.516
HCC-15 | 0.444

Same assay, conditions: first compound 4 µM

Cell Line | relative viability
NCI-H2405 | 0.601
HOP-62 | 0.299
HCC-44 | 1.2
LU99A | 0.533
BEN | 0.963
HARA | 1.04
HCC-78 | 0.569
NCI-H322M | 0.495
LCLC-97TM1 | 0.146
NCI-H2009 | 0.198
A-427 | 0.814
NCI-H441 | 0.378
NCI-H661 | 0.472
NCI-H1734 | 0.632
NCI-H460 | 0.0577
NCI-H2347 | 0.322

Cell Line | relative viability
SK-LU-1 | 0.408
201T | 0.715
NCI-H1915 | 0.249
HCC-827 | 0.432
LXF-289 | 0.612
NCI-H23 | 0.295
NCI-H647 | 0.335
NCI-H1651 | 0.828
EPLC-272H | 0.306
NCI-H1792 | 0.372
NCI-H1355 | 0.454
NCI-H3122 | 0.279
NCI-H1437 | 0.398
NCI-H1755 | 0.739
NCI-H2023 | 0.349
HCC-15 | 0.392

The cell lines below were run with O=c1ncccn1[C@@H]1O[C@H](CO)[C@@H](O)[C@H]1O [Zebularine] + C[C@@H](Oc1cc(-c2cnn(C3CCNCC3)c2)cnc1N)c1c(Cl)ccc(F)c1Cl [Crizotinib] (partner 1 µM) in the same assay as above. Settings: first compound 1 µM.
How it was run: as §1

Cell Line | relative viability
NCI-H2405 | 0.845
HOP-62 | 0.923
HCC-44 | 0.808
LU99A | 0.683
BEN | 0.812
HARA | 1.17
HCC-78 | 0.336
NCI-H322M | 0.969
LCLC-97TM1 | 0.355
NCI-H2009 | 1.07
A-427 | 1.21
NCI-H441 | 0.874
NCI-H661 | 1.24
NCI-H1734 | 0.71
NCI-H460 | 1.06
NCI-H2347 | 0.682

Cell Line | relative viability
SK-LU-1 | 1.02
201T | 1.08
NCI-H1915 | 1.18
HCC-827 | 1.07
LXF-289 | 0.835
NCI-H23 | 0.482
NCI-H647 | 1.18
NCI-H1651 | 0.919
EPLC-272H | 0.969
NCI-H1792 | 1.06
NCI-H1355 | 1.12
NCI-H3122 | 0.268
NCI-H1437 | 1.09
NCI-H1755 | 1.03
NCI-H2023 | 0.807
HCC-15 | 1.02

Same assay, conditions: first compound 3.162 µM

Cell Line | relative viability
NCI-H2405 | 0.825
HOP-62 | 0.245
HCC-44 | 0.798
LU99A | 0.531
BEN | 0.81
HARA | 1.11
HCC-78 | 0.335
NCI-H322M | 0.897
LCLC-97TM1 | 0.291
NCI-H2009 | 0.962
A-427 | 0.795
NCI-H441 | 0.657
NCI-H661 | 1
NCI-H1734 | 0.696
NCI-H460 | 0.987
NCI-H2347 | 0.676

Cell Line | relative viability
SK-LU-1 | 0.843
201T | 1.03
NCI-H1915 | 0.911
HCC-827 | 0.907
LXF-289 | 0.828
NCI-H23 | 0.559
NCI-H647 | 0.981
NCI-H1651 | 0.893
NCI-H1792 | 0.876
NCI-H1355 | 0.966
NCI-H3122 | 0.248
NCI-H1437 | 0.987
NCI-H1755 | 0.872
NCI-H2023 | 0.569
HCC-15 | 0.761

Same assay, conditions: first compound 10 µM

Cell Line | relative viability
NCI-H2405 | 0.621
HOP-62 | 0.601
HCC-44 | 0.698
LU99A | 0.383
BEN | 0.433
HCC-78 | 0.298
NCI-H322M | 0.804
LCLC-97TM1 | 0.145
NCI-H2009 | 0.817
A-427 | 0.624
NCI-H441 | 0.289
NCI-H661 | 1.02
NCI-H1734 | 0.391
NCI-H460 | 0.273
NCI-H2347 | 0.618
SK-LU-1 | 0.531
201T | 0.861
NCI-H1915 | 0.649
HCC-827 | 0.785
LXF-289 | 0.714
NCI-H647 | 0.254
NCI-H1651 | 0.604
NCI-H1792 | 0.381
NCI-H1355 | 0.87
NCI-H3122 | 0.243
NCI-H1755 | 0.612
NCI-H2023 | 0.611
HCC-15 | 0.586

Same assay, conditions: first compound 31.62 µM

Cell Line | relative viability
NCI-H2405 | 0.846
HOP-62 | 0.209
HCC-44 | 0.656
LU99A | 0.255
BEN | 0.37
HARA | 1.17
HCC-78 | 0.359
NCI-H322M | 0.821
LCLC-97TM1 | 0.121
NCI-H2009 | 0.681
A-427 | 0.345
NCI-H441 | 0.173
NCI-H661 | 1.05
NCI-H1734 | 0.384
NCI-H460 | 0.375
NCI-H2347 | 0.516

Cell Line | relative viability
SK-LU-1 | 0.79
201T | 1.11
NCI-H1915 | 0.926
HCC-827 | 0.647
LXF-289 | 0.622
NCI-H23 | 0.456
NCI-H647 | 0.142
NCI-H1651 | 0.745
EPLC-272H | 0.839
NCI-H1792 | 0.386
NCI-H1355 | 0.404
NCI-H3122 | 0.298
NCI-H1437 | 0.902
NCI-H1755 | 0.864
NCI-H2023 | 0.389
HCC-15 | 0.769

Same assay, conditions: first compound 100 µM

Cell Line | relative viability
NCI-H2405 | 0.56
HOP-62 | 0.129
HCC-44 | 0.166
LU99A | 0.153
BEN | 0.328
HARA | 0.834
HCC-78 | 0.252
NCI-H322M | 0.523
LCLC-97TM1 | 0.12
NCI-H2009 | 0.311
A-427 | 0.188
NCI-H441 | 0.219
NCI-H661 | 0.997
NCI-H1734 | 0.295
NCI-H460 | 0.1
NCI-H2347 | 0.381

Cell Line | relative viability
SK-LU-1 | 0.583
201T | 1.01
NCI-H1915 | 0.698
HCC-827 | 0.339
LXF-289 | 0.238
NCI-H23 | 0.5
NCI-H647 | 0.228
NCI-H1651 | 0.514
EPLC-272H | 0.685
NCI-H1792 | 0.339
NCI-H1355 | 0.315
NCI-H3122 | 0.235
NCI-H1437 | 0.31
NCI-H1755 | 0.466
NCI-H2023 | 0.201
HCC-15 | 0.219

Each cell line was assayed with CC(C)CCN1c2nc(Nc3cc(F)c(O)c(F)c3)ncc2N(C)C(=O)C1C [BI-D1870] + Nc1ncn([C@H]2C[C@H](O)[C@@H](CO)O2)c(=O)n1 [Decitabine] (partner 2 µM) in the same assay as above. Settings: first compound 0.04 µM.
How it was run: as §1

Cell Line | relative viability
NCI-H2405 | 0.788
HOP-62 | 0.212
